How the values were obtained:
[1] = Barium Sulfate Antiprecipitation Tests; settings: pH 7; for Percent inhibition of barium sulfate precipitation: 18 hours, 25° C.
Method: To evaluate the effect of the aminoalkylenephosphonic acids of this invention in inhibiting the precipitation of barium sulfate, the desire volumes of stock solutions of the phosphonic acids or their sodium salts (prepared with demineralized water) were added to 10-ml. aliquots of a barium chloride solution containing 5.35 g. BaCl2.H2 O per liter. The volume of each was made up to 175 ml. with demineralized water, and the pH was adjusted to 7.0 with dilute NaOH or HCl. A 25-ml. aliquot of a sodium sulfate solution (1.24 g. Na2 SO4 per liter) was then added to each. The test solutions were agitated on a gyratory shaker table for 18 hours at 25° C. At the end of this time, insoluble material was removed by filtration and the barium ion concentration was determined with an atomic absorption unit. The percent inhibition was calulated and the results are included in Table 3. Compound C was described in Example 15 and Compound H was described in Example 16. Compound I was an aqueous solution containing 22.5 percent of the trisodium salt of tetrahydro-N,N-bis(phosphonomethyl)-3-thiophenamine 1,1-dioxide and 7.5 percent of a poly(acrylic acid) having a molecular weight of about 4000. Compound J was an aqueous solution containing 7.5 percent of tetrahydro-N,N-bis(phosphononmethyl)-3-thiophenamine 1,1-dioxide and 22.5 percent of a poly(acrylic acid) having a molecular weight of about 4000. Since the percent inhibition results were lower that those obtainined in Examples 15 and 16, a well known scale inhibitor was included in this test for comparison.

[2] = Calcium Carbonate Antiprecipitation Tests; settings: 18 hours, 25° C.
Method: To evaluate the effect of the aminoalkylenephosphonic acids of this invention on the precipitation of calcium carbonate, measured volumes of stock solution (prepared with demineralized water) of the phosphonic acids or their sodium salts were added to 100 ml. portions of a calcium chloride solution (0.2936 g. CaCl2.2H2 O per 100 ml. of solution). Then 100 ml. of a sodium bicarbonate solution (0.168 g. NaHCO3 per 100 ml. of solution) was added to each portion of calcium chloride solution. The test solutions were then agitated on a gyratory shaker table for 18 hours at a temperature of 25° C. At the end of this time, insoluble material was removed by filtration through a Millipore membrane filter, and the calcium ion concentration in the filtrate was determined with an atomic absorption spectrophotometer. […] The compounds tested were as follows:
A. Tetrahydro-N,N-bis(phosphonomethyl)-3-thiophenamine 1,1-dioxide (30 percent)
B. Thirty percent solution of the trisodium salt of A
D. Tetrahydro-N,N,N',N'-tetrakis(phosphonomethyl)-3,4-thiophenediamine 1,1-dioxide (30 percent)
E. 3-Hydrazinotetrahydro-N,N-bis(phosphonomethyl)thiophene 1,1-dioxide (30 percent)
F. Tetrahydro-N-(2-hydroxyethyl)-N-(phosphonomethyl)-3-thiophenamine 1,1-dioxide (30 percent)

[3] = Calcium Sulfate Antiprecipitation Tests; settings: pH 7, 18 hours, 50° C.
Method: Inhibition of calcium sulfate precipitation by the aminoalkylenephosphonic acids of this invention was evaluated by adding the desired volumes of stock solutions of the phosphonic acids or their sodium salts (prepared with demineralized water) to 10-ml. aliquots of a calcium chloride solution containing 162.9 g. of CaCl2 per liter. The volume of each was made up to 175 ml. with demineralized water, and the pH was adjusted to 7.0 with dilute NaOH or HCl. A 25-ml. aliquot of a sodium sulfate solution (83.84 g. Na2 SO4 per liter) was then added to each. The test solutions were maintained for 18 hours at a temperature of 50° C. A portion of each was filtered while still hot to remove insoluble materials and the filtrate was analyzed for calcium by means of an atomic absorption instrument. The percent inhibition was calculated and the results are included in Table 2.

Compound | percent inhibition of calcium carbonate precipitation ([2]; pH 8.5, 1 parts per million) [%] | percent inhibition of calcium carbonate precipitation ([2]; pH 8.5, 3 parts per million) [%] | percent inhibition of calcium carbonate precipitation ([2]; pH 8.5, 5 parts per million) [%] | percent inhibition of calcium carbonate precipitation ([2]; pH 8.5, 10 parts per million) [%] | percent inhibition of calcium carbonate precipitation ([2]; pH 8.5, 25 parts per million) [%] | percent inhibition of calcium carbonate precipitation ([2]; pH 8.5, 50 parts per million) [%] | percent inhibition of calcium carbonate precipitation ([2]; pH 9.0, 1 parts per million) [%] | percent inhibition of calcium carbonate precipitation ([2]; pH 9.0, 3 parts per million) [%] | percent inhibition of calcium carbonate precipitation ([2]; pH 9.0, 5 parts per million) [%] | percent inhibition of calcium carbonate precipitation ([2]; pH 9.0, 10 parts per million) [%] | percent inhibition of calcium carbonate precipitation ([2]; pH 9.0, 25 parts per million) [%] | percent inhibition of calcium carbonate precipitation ([2]; pH 9.0, 50 parts per million) [%] | Percent inhibition of calcium sulfate precipitation ([3]; 1 parts per million) [%] | Percent inhibition of calcium sulfate precipitation ([3]; 3 parts per million) [%] | Percent inhibition of calcium sulfate precipitation ([3]; 5 parts per million) [%] | Percent inhibition of calcium sulfate precipitation ([3]; 10 parts per million) [%] | Percent inhibition of calcium sulfate precipitation ([3]; 25 parts per million) [%] | Percent inhibition of calcium sulfate precipitation ([3]; 50 parts per million) [%] | also measured
O=P(O)(O)CN(CP(=O)(O)O)CP(=O)(O)O [Compound K, nitrilotris(methylenephosphonic acid)] | – | – | – | – | – | – | – | – | – | – | – | – | – | – | – | – | – | – | Percent inhibition of barium sulfate precipitation ([1]; 5 parts per million): 5%; Percent inhibition of barium sulfate precipitation ([1]; 10 parts per million): 5%; Percent inhibition of barium sulfate precipitation ([1]; 25 parts per million): 6%; Percent inhibition of barium sulfate precipitation ([1]; 50 parts per million): 12%; effectiveness in inhibiting barium sulfate precipitation, compared with the combinations ([1]; in words): less than that of the combinations containing tetrahydro-N,N-bis(phosphonomethyl)-3-thiophenamine 1,1-dioxide
O=P(O)(O)CN(CP(=O)(O)O)C1CCS(=O)(=O)C1 (centres unmarked) [B] | 92 | 87 | 92 | 91 | 93 | 94 | 9 | 11 | 89 | 85 | 16 | 86 | 40 | 52 | 55 | 78 | 95 | 100 | –
O=P(O)(O)CN(CP(=O)(O)O)C1CS(=O)(=O)CC1N(CP(=O)(O)O)CP(=O)(O)O (centres unmarked) [D, Tetrahydro-N,N,N',N'-tetrakis(phosphonomethyl)-3,4-thiophenediamine 1,1-dioxide] | 78 | 73 | 73 | 71 | 70 | 70 | – | – | – | – | – | – | – | – | – | – | – | – | –
O=P(O)(O)CN(CP(=O)(O)O)C1CCS(=O)(=O)C1 (centres unmarked) [A, Tetrahydro-N,N-bis(phosphonomethyl)-3-thiophenamine 1,1-dioxide] | 83 | 84 | 78 | 85 | 73 | 71 | – | – | – | – | – | – | – | – | – | – | – | – | –
O=P(O)(O)CN(CP(=O)(O)O)NC1CCS(=O)(=O)C1 (centres unmarked) [E, 3-Hydrazinotetrahydro-N,N-bis(phosphonomethyl)thiophene 1,1-dioxide] | 82 | 82 | 77 | 79 | 100 | 91 | 78 | 79 | 79 | 79 | 70 | 86 | 38 | 38 | 38 | 38 | 40 | 45 | –
O=P(O)(O)CN(CCO)C1CCS(=O)(=O)C1 (centres unmarked) [F, Tetrahydro-N-(2-hydroxyethyl)-N-(phosphonomethyl)-3-thiophenamine 1,1-dioxide] | 27 | 25 | 27 | 25 | 38 | 32 | – | – | – | – | – | – | 41 | 38 | 39 | 43 | 61 | 88 | –

Reference: patent US4374040A, “Aminoalkylenephosphonic acids and salts thereof and their use in aqueous systems” (Buckman Laboratories, Inc., priority 1980, dated 1983)
